Source: the supplement of paper PMC13380429
± gives the standard deviation of the averaged measurements.

Legend:
Details in all cases: 72 h
[1] = tested on: HepG2; experiment: cell viability relative to DMSO; higher = less toxic
[2] = tested on: Vero E6; experiment: as above
[3] = tested on: Calu-3; experiment: as above
[4] = tested on: Caco-2; experiment: as above
[5] = tested on: U2OS; experiment: as above
[6] = tested on: HepG2; experiment: relative viability EC50 (midpoint between 100% and the lowest measured viability); higher = less toxic
[7] = tested on: Vero E6; experiment: as above
[8] = tested on: Calu-3; experiment: as above
[9] = tested on: Caco-2; experiment: as above
[10] = tested on: U2OS; experiment: as above
[11] = tested on: HepG2; experiment: drug sensitivity score (DSS) for viability; higher = more toxic; extreme values may be limits of the assay
[12] = tested on: Vero E6; experiment: as above
[13] = tested on: Calu-3; experiment: as above
[14] = tested on: Caco-2; experiment: as above
[15] = tested on: U2OS; experiment: as above

COc1ccc(CCC(=O)Nc2nc3ccc(Cl)cc3s2)cc1OC
cell viability ([1]; 1 nM): 96.5% | cell viability ([1]; 10 nM): 110% | cell viability ([1]; 100 nM): 96.3% | cell viability ([1]; 1000 nM): 98.3% | cell viability ([1]; 10000 nM): 98.1% | cell viability ([2]; 1 nM): 101% | cell viability ([2]; 10 nM): 96.9% | cell viability ([2]; 100 nM): 97.3% | cell viability ([2]; 1000 nM): 101% | cell viability ([2]; 10000 nM): 95.2% | cell viability ([3]; 1 nM): 102% | cell viability ([3]; 10 nM): 94.9% | cell viability ([3]; 100 nM): 92.7% | cell viability ([3]; 1000 nM): 91.7% | cell viability ([3]; 10000 nM): 89.3% | cell viability ([4]; 1 nM): 102% | cell viability ([4]; 10 nM): 94% | cell viability ([4]; 100 nM): 95.9% | cell viability ([4]; 1000 nM): 92.1% | cell viability ([4]; 10000 nM): 85.4% | cell viability ([5]; 1 nM): 101% | cell viability ([5]; 10 nM): 94.7% | cell viability ([5]; 100 nM): 98.5% | cell viability ([5]; 1000 nM): 95.1% | cell viability ([5]; 10000 nM): 96.3% | relative viability EC50 [6]: > 10 µM | relative viability EC50 [7]: > 10 µM | relative viability EC50 [8]: > 10 µM | relative viability EC50 [9]: > 10 µM | relative viability EC50 [10]: > 10 µM | drug sensitivity score [11]: 0 | drug sensitivity score [12]: 0 | drug sensitivity score [13]: 0.1 | drug sensitivity score [14]: 0.3 | drug sensitivity score [15]: 0

NC1=N[C@@]2(c3cc(NC(=O)c4ccc(F)cn4)ccc3F)COC[C@H]2CS1
cell viability ([1]; 1 nM): 99.9% | cell viability ([1]; 10 nM): 110% | cell viability ([1]; 100 nM): 93.4% | cell viability ([1]; 1000 nM): 112% | cell viability ([1]; 10000 nM): 105% | cell viability ([2]; 1 nM): 95.5% | cell viability ([2]; 10 nM): 97.2% | cell viability ([2]; 100 nM): 94.3% | cell viability ([2]; 1000 nM): 99.4% | cell viability ([2]; 10000 nM): 102% | cell viability ([3]; 1 nM): 103% | cell viability ([3]; 10 nM): 96.5% | cell viability ([3]; 100 nM): 93.4% | cell viability ([3]; 1000 nM): 93.1% | cell viability ([3]; 10000 nM): 98.5% | cell viability ([4]; 1 nM): 94.8% | cell viability ([4]; 10 nM): 93.7% | cell viability ([4]; 100 nM): 101% | cell viability ([4]; 1000 nM): 86% | cell viability ([4]; 10000 nM): 103% | cell viability ([5]; 1 nM): 98.6% | cell viability ([5]; 10 nM): 94.6% | cell viability ([5]; 100 nM): 101% | cell viability ([5]; 1000 nM): 98.4% | cell viability ([5]; 10000 nM): 100% | relative viability EC50 [6]: > 10 µM | relative viability EC50 [7]: > 10 µM | relative viability EC50 [8]: > 10 µM | relative viability EC50 [9]: > 10 µM | relative viability EC50 [10]: > 10 µM | drug sensitivity score [11]: 0 | drug sensitivity score [12]: 0 | drug sensitivity score [13]: 0 | drug sensitivity score [14]: 0 | drug sensitivity score [15]: 0

Cc1ccc2c(c1)C(=O)[C@]1(O)CCN(c3ccccc3)C1=N2 (racemic) [blebbistatin-(+/-)]
cell viability ([1]; 1 nM): 98 ± 1.3% | cell viability ([1]; 10 nM): 88.2 ± 0.92% | cell viability ([1]; 100 nM): 98.3 ± 8.3% | cell viability ([1]; 1000 nM): 89 ± 9.6% | cell viability ([1]; 10000 nM): 96 ± 7% | cell viability ([2]; 1 nM): 98.6 ± 0.99% | cell viability ([2]; 10 nM): 96.6 ± 4.5% | cell viability ([2]; 100 nM): 96.4 ± 4.4% | cell viability ([2]; 1000 nM): 95.5 ± 3.9% | cell viability ([2]; 10000 nM): 93.4 ± 10% | cell viability ([3]; 1 nM): 99 ± 11% | cell viability ([3]; 10 nM): 95.9 ± 0.28% | cell viability ([3]; 100 nM): 95.5 ± 10% | cell viability ([3]; 1000 nM): 109 ± 3.2% | cell viability ([3]; 10000 nM): 136 ± 9.8% | cell viability ([4]; 1 nM): 100 ± 2.5% | cell viability ([4]; 10 nM): 97.25 ± 0.49% | cell viability ([4]; 100 nM): 97.9 ± 2.1% | cell viability ([4]; 1000 nM): 98.5 ± 1.1% | cell viability ([4]; 10000 nM): 94.2 ± 16% | cell viability ([5]; 1 nM): 99.4 ± 1.6% | cell viability ([5]; 10 nM): 101.2 ± 0.78% | cell viability ([5]; 100 nM): 97.8 ± 1.8% | cell viability ([5]; 1000 nM): 99.85 ± 0.35% | cell viability ([5]; 10000 nM): 95.2 ± 12% | relative viability EC50 [6]: > 10 µM | relative viability EC50 [7]: > 10 µM | relative viability EC50 [8]: > 10 µM | relative viability EC50 [9]: > 10 µM | relative viability EC50 [10]: > 10 µM | drug sensitivity score [11]: 0 | drug sensitivity score [12]: 0.15 ± 0.21 | drug sensitivity score [13]: 0 | drug sensitivity score [14]: 0.3 ± 0.42 | drug sensitivity score [15]: 0.05 ± 0.071

C=C[C@H]1CN2CC[C@H]1CC2C(OC(=O)OCC)c1ccnc2ccc(OC)cc12 (stereo in doubt) [quinine-ethyl-carbonate]
cell viability ([1]; 1 nM): 93.2% | cell viability ([1]; 10 nM): 97.7% | cell viability ([1]; 100 nM): 100% | cell viability ([1]; 1000 nM): 104% | cell viability ([1]; 10000 nM): 97.4% | cell viability ([2]; 1 nM): 104% | cell viability ([2]; 10 nM): 95.9% | cell viability ([2]; 100 nM): 105% | cell viability ([2]; 1000 nM): 107% | cell viability ([2]; 10000 nM): 100% | cell viability ([3]; 1 nM): 99.9% | cell viability ([3]; 10 nM): 104% | cell viability ([3]; 100 nM): 102% | cell viability ([3]; 1000 nM): 90.4% | cell viability ([3]; 10000 nM): 101% | cell viability ([4]; 1 nM): 114% | cell viability ([4]; 10 nM): 97.1% | cell viability ([4]; 100 nM): 94.2% | cell viability ([4]; 1000 nM): 105% | cell viability ([4]; 10000 nM): 114% | cell viability ([5]; 1 nM): 99.9% | cell viability ([5]; 10 nM): 97.3% | cell viability ([5]; 100 nM): 101% | cell viability ([5]; 1000 nM): 96.9% | cell viability ([5]; 10000 nM): 96.9% | relative viability EC50 [6]: > 10 µM | relative viability EC50 [7]: > 10 µM | relative viability EC50 [8]: > 10 µM | relative viability EC50 [9]: > 10 µM | relative viability EC50 [10]: > 10 µM | drug sensitivity score [11]: 0 | drug sensitivity score [12]: 0 | drug sensitivity score [13]: 0 | drug sensitivity score [14]: 0 | drug sensitivity score [15]: 0

OC[C@H]1O[C@@H](O[C@@H]2[C@H](O)[C@@H](O)[C@H](O[C@H]3[C@H](O)[C@@H](O)C(O)O[C@@H]3CO)O[C@@H]2CO)[C@H](O)[C@@H](O)[C@H]1O (stereo not given in full) [4-galactosyllactose]
cell viability ([1]; 1 nM): 111% | cell viability ([1]; 10 nM): 113% | cell viability ([1]; 100 nM): 101% | cell viability ([1]; 1000 nM): 102% | cell viability ([1]; 10000 nM): 98.3% | cell viability ([2]; 1 nM): 97.3% | cell viability ([2]; 10 nM): 105% | cell viability ([2]; 100 nM): 103% | cell viability ([2]; 1000 nM): 101% | cell viability ([2]; 10000 nM): 99.2% | cell viability ([3]; 1 nM): 102% | cell viability ([3]; 10 nM): 99.3% | cell viability ([3]; 100 nM): 98.2% | cell viability ([3]; 1000 nM): 93.3% | cell viability ([3]; 10000 nM): 101% | cell viability ([4]; 1 nM): 118% | cell viability ([4]; 10 nM): 96.6% | cell viability ([4]; 100 nM): 123% | cell viability ([4]; 1000 nM): 78.8% | cell viability ([4]; 10000 nM): 91.7% | cell viability ([5]; 1 nM): 103% | cell viability ([5]; 10 nM): 96.4% | cell viability ([5]; 100 nM): 102% | cell viability ([5]; 1000 nM): 94.8% | cell viability ([5]; 10000 nM): 101% | relative viability EC50 [6]: > 10 µM | relative viability EC50 [7]: > 10 µM | relative viability EC50 [8]: > 10 µM | relative viability EC50 [9]: > 10 µM | relative viability EC50 [10]: > 10 µM | drug sensitivity score [11]: 0 | drug sensitivity score [12]: 0 | drug sensitivity score [13]: 0 | drug sensitivity score [14]: 2.5 | drug sensitivity score [15]: 0

CCN1C(C)(C)CC(Oc2ccc(C(=O)Nc3ccc(NC(=O)Nc4cc(C(C)(C)C)on4)cc3)nc2)CC1(C)C [AC-710]
cell viability ([1]; 1 nM): 100% | cell viability ([1]; 10 nM): 97.7% | cell viability ([1]; 100 nM): 94.1% | cell viability ([1]; 1000 nM): 105% | cell viability ([1]; 10000 nM): 87.3% | cell viability ([2]; 1 nM): 101% | cell viability ([2]; 10 nM): 106% | cell viability ([2]; 100 nM): 99.9% | cell viability ([2]; 1000 nM): 104% | cell viability ([2]; 10000 nM): 96.8% | cell viability ([3]; 1 nM): 108% | cell viability ([3]; 10 nM): 105% | cell viability ([3]; 100 nM): 97.4% | cell viability ([3]; 1000 nM): 89.4% | cell viability ([3]; 10000 nM): 94% | cell viability ([4]; 1 nM): 100% | cell viability ([4]; 10 nM): 89.4% | cell viability ([4]; 100 nM): 100% | cell viability ([4]; 1000 nM): 94.4% | cell viability ([4]; 10000 nM): 88.2% | cell viability ([5]; 1 nM): 98.9% | cell viability ([5]; 10 nM): 97% | cell viability ([5]; 100 nM): 98.9% | cell viability ([5]; 1000 nM): 99.9% | cell viability ([5]; 10000 nM): 94.3% | relative viability EC50 [6]: > 10 µM | relative viability EC50 [7]: > 10 µM | relative viability EC50 [8]: > 10 µM | relative viability EC50 [9]: > 10 µM | relative viability EC50 [10]: > 10 µM | drug sensitivity score [11]: 0 | drug sensitivity score [12]: 0 | drug sensitivity score [13]: 0.2 | drug sensitivity score [14]: 0 | drug sensitivity score [15]: 0
